Reference: patent US4795751A, “5-substituted-6,8-difluoroquinolines useful as antibacterial agents” (Dainippon Pharmaceutical Co., Ltd., priority 1985, dated 1989)
Values after ≈ are worked out from the molar mass of the structure shown.

What was measured:
Ac. calcoaceticus P-6901 = assay: In vitro antibacterial activity, twofold agar-dilution method; format: cell-based; settings: Acinetobacter calcoaceticus, P6901; Ac. calcoaceticus P-6901 (Gram -); Mueller-Hinton agar, 20 h, 37° C.; calculated for free base; read-out: minimum inhibitory concentration (MIC)
Description: (§1) The numbers in the table show minimum inhibitory concentrations (MIC) (μg/ml), calculated for free base. The minimum inhibitory concentration was determined by the twofold agar-dilution method, which was recommended by Japan Society of Chemotherapy (Chemotherapy, 29(1), 76(1981)), using Muller-Hinton agar. One loopful of an overnight culture of test organisms in Mueller-Hinton broth was inoculated onto 10-ml drug-containing agar layers in petri dishes. Bacterial inocula contained approximately 10^6 colonyl-formingunits. Bacterial growth was observed after 20-hour incubation at 37° C. The MIC was defined as the lowest drug concentration which prevented visible bacterial growth.

Al. faecalis P-7001 = assay: as above; format: cell-based; settings: Alcaligenes faecalis, P7001; Al. faecalis P-7001 (Gram -); Mueller-Hinton agar, 20 h, 37° C.; calculated for free base; read-out: minimum inhibitory concentration (MIC)
Description: as §1

B. subtilis PCI 219 = assay: as above; format: cell-based; settings: Bacillus subtilis, PCI219; B. subtilis PCI 219 (Gram +); Mueller-Hinton agar, 20 h, 37° C.; calculated for free base; read-out: minimum inhibitory concentration (MIC)
Description: as §1

E. coli P-51213 = assay: as above; format: cell-based; settings: Escherichia coli, P51213; E. coli P-51213 (Gram -); Mueller-Hinton agar, 20 h, 37° C.; calculated for free base; read-out: minimum inhibitory concentration (MIC)
Description: as §1

P. aeruginosa No. 12 = assay: as above; format: cell-based; settings: Pseudomonas aeruginosa; P. aeruginosa No. 12 (Gram -); Mueller-Hinton agar, 20 h, 37° C.; calculated for free base; read-out: minimum inhibitory concentration (MIC)
Description: as §1

S. aureus 209P JC-1 = assay: as above; format: cell-based; settings: Staphylococcus aureus; S. aureus 209P JC-1 (Gram +); Mueller-Hinton agar, 20 h, 37° C.; calculated for free base; read-out: minimum inhibitory concentration (MIC)
Description: as §1

S. aureus No. 50774 = assay: as above; format: cell-based; settings: Staphylococcus aureus; S. aureus No. 50774 (Gram +); Mueller-Hinton agar, 20 h, 37° C.; calculated for free base; read-out: minimum inhibitory concentration (MIC)
Description: as §1

S. aureus No. 80 = assay: as above; format: cell-based; settings: Staphylococcus aureus; S. aureus No. 80 (Gram +); Mueller-Hinton agar, 20 h, 37° C.; calculated for free base; read-out: minimum inhibitory concentration (MIC)
Description: as §1

S. epidermidis No. 8 = assay: as above; format: cell-based; settings: Staphylococcus epidermidis; S. epidermidis No. 8 (Gram +); Mueller-Hinton agar, 20 h, 37° C.; calculated for free base; read-out: minimum inhibitory concentration (MIC)
Description: as §1

M. bovis P-7101 = assay: microbe, parasite or virus in culture; format: cell-based; settings: Mycobacterium tuberculosis variant bovis, P7101, 20 h, read-out: minimum inhibitory concentration (MIC)
[1] = Acute oral toxicity in mice; settings: mouse, in vivo, po
Description: (§2) A solution containing each of compounds 1, 2 and 3 of this invention in various concentrations was orally given to male mice (ddY) at a dose of 0.1 ml per 10 g of body weight. The number of dead mice was counted after 7 days, and the value of median lethal dose (LD50, mg/kg) was calculated in accordance with the Behrens-Kaerber method.

male mice (ddY) = assay: Acute oral toxicity in mice; settings: conclusion in words from Table 5
Description: as §2

[2] = system: Streptococcus pyogenes A65; assay: In vivo efficacy against systemic infections in mice; set-up: species or system Streptococcus pyogenes; male mice (ddY-S); settings: A65, 168 h, oral, intraperitoneal infection 3×10^7 cells, twice, immediately and 6 h after infection, 7 days, calculated for free base, read-out: median effective dose (ED50)
Description: (§3) Compounds were each dissolved in deionized water. Each of the solutions was orally administered to mice infected with each of the test organisms under the conditions shown hereinbelow, and the median effective dose (ED50) was calculated by probit analysis. The numerals in the table show ED50 (mg/kg) value, calculated for free base.
(§4) Mice: Male mice (ddY-S) weighing about 20 g
Streptococcus pyogenes A65
Intraperitoneal infection with 3×10^7 cells per mouse suspended in brain heart infusion broth.
(§5) Four times, immediately, 6, 24 and 30 hours after infection in case of Streptococcus pneumoniae 1 Neufeld. Twice, immediately and 6 hours after infection in case of other organisms.
(§6) For 14 days in case of Staphylococcus aureus 50774 and Streptocuccus pneumoniae 1 Neufeld. For 7 days in case of other organisms.

[3] = system: Pseudomonas aeruginosa 12; assay: as above; set-up: species or system Pseudomonas aeruginosa; male mice (ddY-S); settings: Pseudomonas aeruginosa, 12, 168 h, oral, intraperitoneal infection about 5×10^3 cells, 4% mucin, twice, immediately and 6 h after infection, 7 days, calculated for free base, read-out: median effective dose (ED50)
Description: as §3, §4
Pseudomonas aeruginosa 12
Intraperitoneal infection with about 5×10^3 cells per mouse suspended in tryptosoy broth with 4% mucin.
as §5, §6

Row | SMILES | MIC (Ac. calcoaceticus P-6901) [µg/mL] | MIC (Al. faecalis P-7001) [µg/mL] | MIC (B. subtilis PCI 219) [µg/mL] | MIC (E. coli P-51213) [µg/mL] | MIC (P. aeruginosa No. 12) [µg/mL] | MIC (S. aureus 209P JC-1) [µg/mL] | MIC (S. aureus No. 50774) [µg/mL] | MIC (S. aureus No. 80) [µg/mL] | MIC (S. epidermidis No. 8) [µg/mL] | MIC (M. bovis P-7101) [µg/mL] | LD50 at 168 h [1] [mg/kg] | oral toxicity (male mice (ddY)) | ED50 [2] [mg/kg] | ED50 [3] [mg/kg]
1 | CC1CN(c2c(F)c(N)c3c(=O)c(C(=O)O)cn(C4CC4)c3c2F)CC(C)N1 (stereo not drawn) [Compound 2, 5-Amino-1-cyclopropyl-6,8-difluoro-7-(3,5-dimethyl-1-piperazinyl)-1,4-dihydro-4-oxoquinoline-3-carboxylic acid] | 0.0125 (≈ 0.0319 µM) | 0.2 (≈ 0.51 µM) | 0.05 (≈ 0.127 µM) | 0.05 (≈ 0.127 µM) | 0.2 (≈ 0.51 µM) | 0.05 (≈ 0.127 µM) | 0.025 (≈ 0.0637 µM) | 0.0125 (≈ 0.0319 µM) | 0.025 (≈ 0.0637 µM) | 0.39 (≈ 0.994 µM) | > 2000 | low oral toxicity |  | 
2 | Nc1c(F)c(N2CCNCC2)c(F)c2c1c(=O)c(C(=O)O)cn2C1CC1 [Compound 3, 5-Amino-1-cyclopropyl-6,8-difluoro-7-(1-piperazinyl)-1,4-dihydro-4-oxoquinoline-3-carboxylic acid] | 0.05 (≈ 0.137 µM) | 0.2 (≈ 0.549 µM) | 0.1 (≈ 0.274 µM) | 0.1 (≈ 0.274 µM) | 0.2 (≈ 0.549 µM) | 0.05 (≈ 0.137 µM) | 0.05 (≈ 0.137 µM) | 0.05 (≈ 0.137 µM) | 0.05 (≈ 0.137 µM) | 0.39 (≈ 1.07 µM) | > 2000 | low oral toxicity |  | 
3 | CN1CCN(c2c(F)c(N)c3c(=O)c(C(=O)O)cn(C4CC4)c3c2F)CC1 [Compound 4, 5-Amino-1-cyclopropyl-6,8-difluoro-7-(4-methyl-1-piperazinyl)-1,4-dihydro-4-oxoquinoline-3-carboxylic acid] | 0.025 (≈ 0.0661 µM) | 0.2 (≈ 0.529 µM) | 0.1 (≈ 0.264 µM) | 0.1 (≈ 0.264 µM) | 0.2 (≈ 0.529 µM) | 0.1 (≈ 0.264 µM) | 0.05 (≈ 0.132 µM) | 0.025 (≈ 0.0661 µM) | 0.05 (≈ 0.132 µM) | 0.39 (≈ 1.03 µM) |  |  |  | 
4 | CCN1CCN(c2c(F)c(N)c3c(=O)c(C(=O)O)cn(C4CC4)c3c2F)CC1 [Compound 5, 5-Amino-1-cyclopropyl-6,8-difluoro-7-(4-ethyl-1-piperazinyl)-1,4-dihydro-4-oxoquinoline-3-carboxylic acid] | 0.0125 (≈ 0.0319 µM) | 0.2 (≈ 0.51 µM) | 0.1 (≈ 0.255 µM) | 0.05 (≈ 0.127 µM) | 0.39 (≈ 0.994 µM) | 0.05 (≈ 0.127 µM) | 0.025 (≈ 0.0637 µM) | 0.025 (≈ 0.0637 µM) | 0.05 (≈ 0.127 µM) | 0.39 (≈ 0.994 µM) |  |  |  | 
5 | Nc1c(F)c(N2CCNC(CF)C2)c(F)c2c1c(=O)c(C(=O)O)cn2C1CC1 (stereo not drawn) [Compound 6, 5-Amino-1-cyclopropyl-6,8-difluoro--7-(3-fluoromethyl-1-piperazinyl)-1,4-dihydro-4-oxoquinoline-3-carboxylic acid] | 0.0063 (≈ 0.0159 µM) | 0.05 (≈ 0.126 µM) | 0.025 (≈ 0.0631 µM) | 0.05 (≈ 0.126 µM) | 0.2 (≈ 0.505 µM) | 0.025 (≈ 0.0631 µM) | 0.0125 (≈ 0.0315 µM) | 0.0063 (≈ 0.0159 µM) | 0.025 (≈ 0.0631 µM) | 0.1 (≈ 0.252 µM) |  |  |  | 
6 | CCn1cc(C(=O)O)c(=O)c2c(N)c(F)c(N3CCNCC3)c(F)c21 [Compound A, 5-amino-1-ethyl-6,8-difluoro-7-(1-piperazinyl)-1,4-dihydro-4-oxoquinoline-3-carboxylic acid, reference compound] | 0.2 (≈ 0.568 µM) | 0.78 (≈ 2.21 µM) | 0.39 (≈ 1.11 µM) | 0.39 (≈ 1.11 µM) | 0.78 (≈ 2.21 µM) | 0.2 (≈ 0.568 µM) | 0.2 (≈ 0.568 µM) | 0.2 (≈ 0.568 µM) | 0.39 (≈ 1.11 µM) | 3.13 (≈ 8.88 µM) |  |  | > 25 | 15
